The text below walks through data of ChEMBL document CHEMBL1201862, “PubChem BioAssay data set” (2004).

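Interpolation was linear, between the two tested concentrations surrounding the appropriate level; five concentrations were tested over 48 hours in 96-well plates. GI50 marks 50% less growth.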 Activity calls are given as the source filed them. Cut-off read from the data, not from the text of the source: active = GI50 up to about 1.1 µM and inactive = higher. Where only a bound is given, the exact number is not on record here.

Common to all, as to experiment: NCI tumour cell line growth inhibition, 48 h
In assay [1] the test system is DU-145.
Assay [2] concerns SNB-75.
Assay [3] has as its system SK-MEL-5.
For assay [4], the system named is SR.
Assay [5] deals with OVCAR-4.
Assay [6] concerns OVCAR-5.
The test system of assay [7] is HCT-15.
Assay [8] deals with HL-60.
Assay [9] has as its system LOX IMVI.
The test system of assay [10] is Hs-578T.
For assay [11], the system named is RPMI-8226.
Assay [12] concerns TK-10.
The subject of assay [13] is PC-3.
Assay [14] relates to MOLT-4.
In assay [15] the test system is HOP-92.
For assay [16], the system named is SNB-19.
For assay [17], the system named is SK-OV-3.

For `COc1c(C)c(OC)c2c(c1O)[C@@H]1[C@@H]3Cc4c(OC)c(C)c(OC)c(O)c4[C@H](CNC(=O)c4ccc5ccccc5n4)N3[C@@H](C#N)[C@H](C2)N1C`, the GI50 in assay [1] was 0.00206 µM (active); in assay [2], 0.00262 µM (active); in [3], 0.000495 µM (active); in [4], 0.000105 µM (active); in assay [5] it was 0.00217 µM (active); in assay [6], 0.000726 µM (active). Also, the GI50 was 0.0101 µM in [7]; 0.000363 µM (active) in [8]; 0.00026 µM (active) in [9]; 0.00124 µM (active) in [10]; 0.000324 µM (active) in [11]; 0.000444 µM (active) in assay [12]. The GI50 in assay [13] was 0.00234 µM (active); in [14], 0.00016 µM (active); in assay [15] it was 0.000363 µM (active); in [16], 0.00569 µM (active).

As to `CCCCCCCCCCCC/C=C\CC[C@@H](O)[C@H](O)CC[C@H](O)[C@@H]1CC[C@@H](CCCCCCCC2=C[C@H](C)OC2=O)O1` [GIGANTRIONENIN], the GI50 in assay [1] was 3.66 µM (inactive); in [2], 7.66 µM (inactive); in [3] it was 1.26 µM (inactive); in assay [4], 1.41 µM (inactive); in [5] it was 10.8 µM (inactive); in assay [6], 18.5 µM (inactive). Besides, the GI50 is 3.85 µM in [7]; 2.17 µM (inactive) in [8]; 1.31 µM (inactive) in assay [9]; 3.03 µM (inactive) in assay [10]; 2.65 µM (inactive) in assay [11]; 2.17 µM (inactive) in assay [12]. The GI50 in [13] is 2.75 µM (inactive); in assay [14], 2.17 µM (inactive); in assay [15], 2.47 µM (inactive); in assay [16], 1.83 µM (inactive).

As for `Cc1cn(C2CC(N)C(C(=O)O)O2)c(=O)[nH]c1=O` (centres undefined), the GI50 in assay [1], in assay [2], in assay [3], in assay [4], in [5] and in [6] was > 100 µM (inactive) throughout. The GI50 is > 100 µM (inactive) in assay [17]; more than 100 µM in assay [7]; > 100 µM (inactive) in assay [8]; > 100 µM (inactive) in [10]; > 100 µM (inactive) in assay [11]; > 100 µM (inactive) in assay [12]. In addition, the GI50 in assay [13], in assay [14], in [15] and in [16] was > 100 µM (inactive) each time.

Regarding `CCOC(=O)C(C(N)=O)C1=Nc2cc([N+](=O)[O-])ccc2N/C1=C\C(=O)c1ccccc1` (centres undefined), the GI50 in assay [1] is 13.5 µM (inactive); in assay [2] it was 17.7 µM (inactive); in assay [3] it was 16.7 µM (inactive); in assay [4], 3.3 µM (inactive); in assay [5], 18.7 µM (inactive); in assay [6] it was 24 µM (inactive). The GI50 in assay [17] was 14.1 µM (inactive); in assay [7], 12.6 µM; in assay [8] it was 8.93 µM (inactive); in assay [9], 14.1 µM (inactive); in assay [10] it was 16.5 µM (inactive); in [11], 11.1 µM (inactive). Further, the GI50 in [12] was 11 µM (inactive); in assay [13] it was 15.5 µM (inactive); in [15], 15.4 µM (inactive); in assay [16], 18.5 µM (inactive).
